“Also recorded” adds a separate entry of the source.
Experiments:
Assay type in all cases: in vivo, mouse
[1] = target: T1, Human Aβ38, Aβ40 and Aβ42 (Homo sapiens, UniProt P05067); assay: Human Aβ38, Aβ40 and Aβ42 in CSF of hAPPSL Tg mice after 90 days treatment (immunosorbent assay); details: twice daily i.p.
T1 construct: from tissue; host or cells: CSF and left brain hemisphere (SDS fraction) of transgenic hAPPSL mice
Method: (§1) Vehicle: Phosphate Buffered Saline (PBS; 6.7 mM PO4, 155 mM NaCl, pH=7.3-7.5) (BioWhittaker PBS from Lonza).
(§2) Test item (T.I.): p-FTAA and P9707_003 diluted in vehicle from stock solution in deionized water (10 mg/ml).
(§3) Tg hAPPSL: Transgenic hAPPSL mice over-expressing hAPP(751) under the control of the murine Thy-1 promoter with a C57BL/6xDBA background.
(§4) Human Aβ38, Aβ40 and Aβ42 were determined in homogenates of the left brain hemispheres and in CSF samples of all Tg animals by an immunosorbent assay from Mesoscale Discovery
(§5) 48 hAPP Tg mice plus 4 reserves allocated to 4 different treatment groups were treated with either vehicle only (control), p-FTAA or P9707_003. As an additional control, 12 nTg littermates of the hAPPSL mice (plus 1 reserve) were treated with vehicle only. Starting at 6.5 months of age, female hAPPSL mice were treated with vehicle only, p-FTAA (dosage: 1 or 10 mg/kg/day) or P9707_003 (dosage: 10 mg/kg/day) for 90 days. The Test Items (T.I.s) were administered in Vehicle. Compound and vehicle were administered twice daily i.p. for 90 days. Tg hAPPSL mice with a C57BL/6xDBA background and corresponding nTg littermates at an age of 6.5 months (±2 weeks) were randomly assigned to the treatment groups.
(§6) In the brain homogenate SDS fraction and in CSF of each Tg mouse, human Aβ38, Aβ40 and Aβ42 levels were measured with a Aβ-kit from Mesoscale Discovery. Aβ levels were evaluated in comparison to a peptide standard as pg/mg brain (wet weight) or pg/ml CSF.
Descriptive statistical analysis was performed on all evaluated parameters. All data were represented as mean±standard error of mean (SEM). Grubb's test was used to detect outliers. Normality distribution of the values was tested with Kolmogorov Smirnov normality distribution test. Group differences between all Tg groups were calculated by a parametric ANOVA followed by a Bonferroni post test.

[2] = test system: amyloid depositions (plaques); assay: Plaque number and plaque area in hAPPSL Tg mice (ThioflavinS staining); details: twice daily i.p., 90 days, vs vehicle
Method: as §1
(§7) Test Item (T.I.): p-FTAA and P9707_003, diluted in vehicle from stock solution in deionized water (10 mg/ml).
as §3
as §5, with “(+2” for “(±2”, “groups. […]” for “groups.”
Plaque load was quantified by staining with ThioflavinS staining of beta-sheet structures in a double incubation.
For determination of amyloid depositions 5 slices (1 from each level) per brain were stained and screened. Region areas (hippocampus and cortex) were measured and plaque surface area, number of plaques and mean size of objects within each region were quantified separately using automated image analysis software (Image Pro Plus, version 6.2).
Mosaic images for plaque load quantification including the whole cortex and hippocampus were recorded on a Zeiss AxioImager.Z1 microscope using high aperture lenses and an AxioVision 4.8 software driven AxioCam MRm (10× lens, 1× optocoupler). Plaques for AT180 quantifcation were imaged with a 20× lens. […]
Descriptive statistical analysis was performed on all evaluated parameters, Kolmogorov Smirnov test were performed to test normal distribution of data. […]

[3] = test system: PHF-tau doubly-phosphorylated at Thr231 and Ser235; assay: Phosphorylation of Tau in neurites crossing amyloid plaques, AT180 IHC, hAPPSL Tg mice
Method: as §1, §7, §3
as §5, with “(+2” for “(±2”
Histological evaluations were performed with six randomly chosen cryo-frozen brain hemispheres of treatment groups PBS Control, p-FTAA 1 mg/kg/day, p-FTAA 10 mg/kg/day, and P9707_003 10 mg/kg/day.
15 cryo-sections per level (altogether 5 levels), each 10 μm thick (Leica CM 3050S) were sagittally cut. Brain levels were chosen according to the morphology atlas “The Mouse Brain” from Paxinos and Franklin (2nd edition). The cutting of the five levels started with a random slice, then sampling was continued uniformly and systematically, always retaining 15 slices per level in series and discarding 100 μm in between the levels.
TAU phosphorylation was visualized immunohistochemically using the AT180 antibody. Clone AT180 recognizes PHF-tau doubly-phosphorylated at Thr231 and Ser235.
For determination of amyloid depositions 5 slices (1 from each level) per brain were stained and screened. From each slice five images were captured from 5 defined areas in the brain. The order of these positions reflect the time course of plaque deposition in the APPsl model, which starts in the frontal cortex (P11) at the age of 3 months and then spreads to the medial (P12) and dorsal cortex over age. At six months of age, plaques can be found in the medial cortex (P13), from then plaque load spreads into the hippocampal formation with hot spots in the subiculum (P14) and the dentate gyrus (P15) at the age of nine months.
Mosaic images for plaque load quantification including the whole cortex and hippocampus were recorded on a Zeiss AxioImager.Z1 microscope using high aperture lenses and an AxioVision 4.8 software driven AxioCam MRm (10× lens, 1× optocoupler). Plaques for AT180 quantifcation were imaged with a 20× lens. Detail images for qualitative figures are 40× image stacks collapsed to 2D by the extended depth of field function of AxioVision software.
Descriptive statistical analysis was performed on all evaluated parameters, Kolmogorov Smirnov test were performed to test normal distribution of data. Data in graphs are represented as mean±SEM.

[4] = target: T1, Human Aβ38, Aβ40 and Aβ42; assay: Human Aβ38, Aβ40 and Aβ42 in SDS brain homogenate fraction of hAPPSL Tg mice after 90 days treatment; details: twice daily i.p., p-FTAA 1 or 10 mg/kg/day, P9707_003 10 mg/kg/day
Method: as §1, §2, §3, §4
48 hAPP Tg mice plus 4 reserves allocated to 4 different treatment groups were treated with either vehicle only (control), p-FTAA or P9707_003. As an additional control, 12 nTg littermates of the hAPPSL mice (plus 1 reserve) were treated with vehicle only. Starting at 6.5 months of age, female hAPPSL mice were treated with vehicle only, p-FTAA (dosage: 1 or 10 mg/kg/day) or P9707_003 (dosage: 10 mg/kg/day) for 90 days. […]
as §6
Descriptive statistical analysis was performed on all evaluated parameters. […] Group differences between all Tg groups were calculated by a parametric ANOVA followed by a Bonferroni post test.

[5] = P9707_003 10 mg/kg/day, p-FTAA 1 or 10 mg/kg/day

T1 sequence (P05067 672-713 limits assumed): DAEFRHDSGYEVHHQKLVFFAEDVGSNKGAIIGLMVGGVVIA

- Mean Aβ levels in CSF, relative to vehicle control (PBS control) ([1]; 10 mg/kg/day, female hAPPSL Tg mice, Aβ38, Aβ40, Aβ42, % of vehicle control): about 60%
- CSF Aβ levels ([1]; hAPPSL Tg mice, p-FTAA 1 or 10 mg/kg/day, P9707_003 10 mg/kg/day): decreased
SMILES: O=C(O)Cc1ccsc1-c1ccc(-c2sc(-c3ccc(-c4cc(CC(=O)O)c(-c5ccc(-c6sccc6CC(=O)O)s5)s4)s3)cc2CC(=O)O)s1 [Example 1, 2-(2-{5-[3-(Carboxymethyl)-5-{5-[4-(carboxymethyl)-5-{5-[3-(carboxymethyl)thiophen-2-yl]thiophen-2-yl}thiophen-2-yl]thiophen-2-yl}thiophen-2-yl]thiophen-2-yl}thiophen-3-yl)acetic acid]
- reduction of plaque number in the hippocampus ([2]; 10 mg/kg/day, ThioflavinS): 54%
- hippocampal plaque area percentage (ThioflavinS) [2, 5]: significantly lower plaque load; also recorded: reduced
- number of ThioflavinS positive objects (plaque number) in the hippocampus [2, 5]: reduced object number; also recorded: highly significant reduced
- AT180 load ([3]; 10 mg P9707_003 treatment, plaque sides 2 and 4): significant reduction
- AT180 IR in plaques of younger history of origin (hippocampal formation, subiculum, dentate gyrus) ([3]; 90 days i.p., hAPPSL Tg mice): drastically reduced
- AT180 load at hippocampal plaques, reduced to ([3]; P9707_003 10 mg/kg/day, 90 days i.p.): approximately 45%
- reduction of AT180 ([3]; P9707_003 10 mg/kg/day, 90 days i.p., positions 4 and 5): more than 40%
- aggregated Aβ38, Aβ40 and Aβ42 in SDS fraction of brain homogenate [4]: significant decrease; also recorded: reduced

— patent US9359311B2, “Substituted aromatic oligomers” (NEUROSCIOS GMBH, priority 2011, dated 2016)
